Assay results reported in patent publication US20250325524A1, “COMPOSITIONS AND METHODS FOR TREATING RENAL INJURY” (CASE WESTERN RESERVE UNIVERSITY, priority 2018, published 2025).
“Also recorded” adds a separate entry of the source.

Legend:
[1] = system: PGE2 production by cell lines; assay: PGE2 production by cell lines; format: cell-based
[2] = stability on incubation with hepatocyte cell lines; format: in vitro ADME
[3] = system: mice with ischemic AKI; assay: survival and body weight over 7 days after renal IRI; format: in vivo; conditions: bilateral IRI 30 minutes, 5 mg/kg i.p. once pre-IRI then twice daily for 7 days
Experimental: (A) Experimental setup for toxicity. Ischemic AKI induced by bilaterally clamping the renal arteries for 30 minutes, followed by reperfusion. […] (n=10 per group). (B, C) Survival curves and body weight over 7 days. Kaplan-Meier analysis of survival stratified by AKI stage. Data are means±SEM. *P<0.05 vs. corresponding BI30_vehicle.

[4] = stability on incubation with hepatocyte extracts; format: in vitro ADME
[5] = system: cAMP/AMP/adenosine signaling pathway; assay: renal IRI model: cAMP, AMP and adenosine levels; format: in vivo; conditions: IRI mice
Experimental: (§1) Mice were anesthetized with isoflurane using a vaporizer and placed on a heating pad to maintain their body temperature at 37° C. Both renal arteries were identified through dorsal incisions and clamped for 20, 30, 35, or 37 minutes. Reperfusion was confirmed visually upon release of the clamps. Surgical wounds were closed, and mice were administered 1 mL of saline i.p. The mice were kept in a warm incubator until they regained consciousness and were allowed to recover with ad libitum access to food and water. […] Serum and kidney tissue were collected 24 hours after renal IRI.
After reperfusion for 24 hours, kidney tissues were harvested, homogenized in 10 volumes of 0.1 M HCl, and centrifuged for 10 minutes at 12,000 rpm. The protein concentration was determined by BCA assay. cAMP levels in kidney tissues were measured using a cAMP Complete ELISA Kit (ADI-900-163; Enzo Life Science) an adenosine Assay Kit (KA4547; abnova) and high-performance liquid chromatography (HPLC).

[6] = system: malondialdehyde (MDA); assay: renal IRI model: malondialdehyde (MDA) in kidney tissue; format: in vivo; conditions: IRI mice, single pre-IRI dose; vehicle peak 48% at 2 hours
Experimental: Mice were anesthetized with isoflurane using a vaporizer and placed on a heating pad to maintain their body temperature at 37° C. Both renal arteries were identified through dorsal incisions and clamped for 20, 30, 35, or 37 minutes. Reperfusion was confirmed visually upon release of the clamps. Surgical wounds were closed, and mice were administered 1 mL of saline i.p. The mice were kept in a warm incubator until they regained consciousness and were allowed to recover with ad libitum access to food and water. […]
Reactive oxygen species (ROS) levels were determined by measurement of malondialdehyde (MDA), the end product of lipid peroxidation in […]. Free MDA reacts with thiobarbituric acid (TBA) at 95° C. to generate an MDA-TBA adduct, which can be quantified colorimetrically at a wavelength of 532 nm. MDA levels were measured in kidney lysates using a lipid peroxidation (MDA) assay kit (ab118970; Abcam). Results were corrected for total protein level and are expressed as […].

[7] = system: mice with ischemic AKI; assay: renal IRI model: necrotic and apoptotic cell death in the outer medulla; format: in vivo
Experimental: as §1
To evaluate necrosis, 5-μm-thick paraffin sections were stained with H&E. Tubular injury was scored semi quantitatively according to a scoring system by a pathologist who examined at least 20 separate fields (×400) in the outer medulla, which is the zone most sensitive to ischemic injury. The scoring system was as follows: 0, no damage; 1, patchy isolated unicellular necrosis; 2, tubular necrosis <25%; 3, tubular necrosis 25-50%; and 4, tubular necrosis >50%. At least 20 consecutive high-power fields (magnification, ×400) per section were scored by two operators blind to the details of the experiment. To analyze the frequency of apoptosis, 5-μm-thick paraffin sections were subjected to terminal deoxynucleotidyl transferase-mediated dUTP nick-end labeling (TUNEL) assay (APT110; Millipore) according to the manufacturer's protocol. TUNEL-positive cells were counted in at least five separate fields (×640 magnification) in the outer medulla, and the apoptosis index (%, number of apoptosis cells/total number of cells) was calculated using GENASIS software.

[8] = system: PGE2 levels; assay: renal IRI model: time course of PGE2 in kidney tissue and serum; format: in vivo, mice
Experimental: as §1
(§2) […] Next, the kidney tissues (˜20 mg) were homogenized in 500 μL of cold PBS containing indomethacin (10 μg/mL) using a tissue homogenizer. The suspension was sonicated in an ice-water bath for 1 minute using cycles of 10 seconds of sonication with 10 seconds of cooling, and they were then centrifuged for 10 minutes at 12,000 rpm. The supernatant was collected for PGE2 assay. Protein concentrations were determined by BCA assay (23225; Thermo Scientific). The PGE2 level in the supernatant was measured using a PGE2 ELISA Kit (SKGE004B; R&D Systems) in triplicate. PGE2 levels were expressed as ng PGE2/mg protein.

[9] = system: mice; assay: toxicity after IP injection into mice
[10] = system: mice with ischemic AKI; assay: renal ischemia-reperfusion injury model: renal function (serum creatinine, NGAL, KIM-1); format: in vivo; conditions: IRI mice, single pre-IRI dose
[11] = system: renal arterioles in the outer medulla; assay: renal vasodilatation in the outer medulla (α-SMA-positive arteriole area); format: in vivo, mice; conditions: α-SMA staining
Experimental: as §1
To quantify vasodilation, the inner arteriole area of the outer medulla was determined using α-SMA-stained sections. After counterstaining with Mayer's hematoxylin, the inner area of α-SMA-positive vessels in the outer medulla (×25) was measured using ImageJ. The results are expressed as average areas of renal arteries outer medulla.

[12] = system: endogenous PGE2 levels in kidney tissue; assay: endogenous PGE2 levels in kidney tissue after i.p. injection; format: in vivo; conditions: mice
Experimental: as §2

[13] = chemical stability in aqueous solutions; format: physicochemical; conditions: over broad pH range

For CCCC[S+]([O-])c1sc2nc(-c3cccs3)cc(-c3ccccc3)c2c1N (stereo not shown) [SW033291], the “PGE2 production by cell lines” value [1] was “increase PGE2 production by cell lines”, the “chemical stability when incubated with hepatocyte cell lines” value [2] was “chemically stable” and the “body weight at POD7” value [3] was “regained greater weights than did vehicle treated mice”. For the same molecule, the survival [3] was “survived at 7 days”, the “chemical stability when incubated with hepatocyte extracts” value [4] was “chemically stable” and the “levels of adenosine in the kidney” value [5] was “increased”. For the same molecule, the “levels of serum adenosine” value [5] was “significantly increased”, the “AMP level in kidney tissue” value ([5]; decrease after IRI vs sham) was “substantially reversed” and the “cAMP level in kidney tissue” value ([5]; decrease after IRI vs sham) was “substantially reversed”. For the same molecule, the “increase of malondialdehyde (MDA) above baseline” value [6] was 14%, the “histologic renal injury score” value ([7]; 3 doses 5 mg/kg i.p., POD1, H&E, outer medulla) was “reducing” and the “count of TUNEL positive apoptotic cells” value ([7]; 3 doses 5 mg/kg i.p., POD1, outer medulla) was “reducing”. The “tissue congestion in the outer medulla (gross pathology)” value ([7]; 3 doses 5 mg/kg i.p., POD1, vs IRI-vehicle) was “ameliorated”, the “renal injury (histopathology, tubular injury)” value ([7]; 3 doses 5 mg/kg, POD1, 5 mg/kg) was “markedly alleviated renal injury; also recorded: more effective than systemic administration of either exogenous PGE1 or PGE2” and the “serum PGE2 level” value ([8]; BI30 mice at 24 hours, prophylaxis) was “significantly decreased”. The “post-IRI peaks of renal PGE2 at 0.5 and 14 hours” value ([8]; IRI mice, single pre-IRI dose, kidney tissue) was “substantially block”, the “renal PGE2 peak over baseline before IRI” value ([8]; mice, single pre-IRI dose, kidney tissue) was 5.12 fold and the toxicity ([9]; IP into mice at 0.3 μmole/per mouse twice daily for 21 days) was “no toxicity”. For the same molecule, the “immediate toxicity over 24 hours” value ([9]; IP into mice at 0.6 μmole/per mouse) was “no immediate toxicity”, the “immediate toxicity over 24 hours” value ([9]; IP into mice at 1.2 μmole/per mouse) was “no immediate toxicity” and the “induction of KIM-1 (time course)” value [10] was “notably effective blockade of induction”. The “induction of creatinine (time course)” value [10] was “notably effective blockade of induction”, the “reduction of peak induction of NGAL” value ([10]; peak at 12 hours) was 20% and the “renal arteriole area in the outer medulla” value ([11]; IRI mice) was “significantly increased”. For the same molecule, the “renal arteriole area in the outer medulla” value ([11]; normal mice) was “increased”, the “level of PGE2 in kidney tissue, time course” value ([12]; 5 mg/kg i.p., 1 and 3 hours) was “peaked at 1 hour at nearly twice as high as at baseline” and the “endogenous PGE2 levels in kidney tissue” value ([12]; 3 hours after i.p. 2.5 or 5 mg/kg, vs vehicle) was “in dose-dependent fashion, upregulated”. For the same molecule, the “chemical stability in aqueous solutions” value [13] was “chemically stable”.
